Earlier results as cited in patent publication EP0423943A2, “Use of collagenase inhibitors in the treatment of demyelinating diseases, in particular multiple sclerosis” (Beecham Group p.l.c., priority 1989, dated 1991).

System: metalloprotease acting at neutral pH identified as a component of myelin membranes
Settings: myelin membrane metalloprotease, literature statement

Compound | inhibition of the enzyme
c1cnc2c(c1)ccc1cccnc12 [1,10-phenanthroline] | inhibited
CC(C)C[C@H](NP(=O)(O)O[C@@H]1O[C@@H](C)[C@H](O)[C@@H](O)[C@H]1O)C(=O)N[C@@H](Cc1c[nH]c2ccccc12)C(=O)O [phosphoramidon] | not
